Measurements taken from patent US20260250318A1, “COMPOSITIONS AND METHODS FOR CROSSING THE BLOOD BRAIN BARRIER” (VOYAGER THERAPEUTICS, INC., priority 2022, published 2026).

Key:
Settings in all cases: synthetic library passage 3, intravenous, relative to wild-type AAV9
[1] = test system: brain, spinal cord, and DRG of the NHPs; assay: NGS fold enrichment of synthetic library (passage 3) in NHPs, first cross-species screen; type: in vivo, cynomolgus macaques (Macaca fascicularis)
How it was run: (§1)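 Passage-3 synthetic capsid library given intravenously […] to NHPs (2-4 years) and BALB/c or C57Bl/6 mice (n=3, 6-8 weeks). After e.g. 28 days, tissue RNA was RT-PCR amplified and NGS-sequenced; values are fold enrichment of each variant relative to wild-type AAV9.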

brain [2] = assay: NGS fold enrichment of synthetic library (passage 3) in BALB/c mice, first cross-species screen; type: in vivo
How it was run: as §1

brain [3] = assay: NGS fold enrichment of synthetic library (passage 3) in C57Bl/6 mice, first cross-species screen; type: in vivo
How it was run: as §1

[4] = RNA from spinal cord of NHPs, NGS
[5] = RNA from brain of BALB/c mice, NGS
[6] = RNA from brain of C57Bl/6 mice, NGS

Row | Sequence | Fold enrichment over AAV9 in the brain of NHPs ([1]; RNA NGS, brain of NHPs) [fold] | Fold enrichment over AAV9 in the spinal cord of NHPs ([1]; RNA NGS, spinal cord of NHPs) [fold] | Fold enrichment over AAV9 in the brain of Mice (BALB/c) (brain [2]; RNA NGS, brain of BALB/c mice) [fold] | Fold enrichment over AAV9 in the brain of Mice (C57Bl/6) (brain [3]; RNA NGS, brain of C57Bl/6 mice) [fold] | Fold enrichment over AAV9 in the brain of NHPs ([1]; RNA from brain of NHPs, NGS) [fold] | Fold enrichment over AAV9 in the spinal cord of NHPs [1, 4] [fold] | Fold enrichment over AAV9 in the brain of Mice (BALB/c) (brain [2]; [5]) [fold] | Fold enrichment over AAV9 in the brain of Mice (C57Bl/6) (brain [3]; [6]) [fold]
1 | GSKGVPTPGQNQQT | 2.625 | 1.292 | 0.459 | 1.452 |  |  |  | 
2 | GSGQALLSTGNQQT |  |  |  |  | 1.377 | 0.847 | 0.370 | 0.536
3 | GSGQLVTSGPNQQT | 1.669 | 5.271 | 0.433 | 0.964 |  |  |  | 
4 | GSNGGVGTGQNQQT | 2.130 | 0.788 | 1.087 | 1.191 |  |  |  | 
5 | GMGRHSASGQNQQT | 1.417 | 6.500 | 0.389 | 0.470 |  |  |  | 
6 | GSGEKVHSGQNQQT |  |  |  |  | 1.289 | 0.062 | 0.671 | 0.862
7 | GSAQVSMVGQNQQT | 1.601 | 1.332 | 0.285 | 0.500 |  |  |  | 
8 | GMSAHMSSGQNQQT | 2.456 | 5.255 | 0.947 | 1.310 |  |  |  | 
9 | GHAHYQASGQNQQT |  |  |  |  | 1.377 | 7.299 | 0.745 | 0.803
10 | GSGQNQQHYGSQGT |  |  |  |  | 1.189 | 0.453 | 0.379 | 1.345
11 | GSGQNQQWDSRRQT |  |  |  |  | 1.321 | 0.531 | 0.825 | 1.059
12 | GREYGHKSGQNQQT | 3.453 | 0.000 | 0.959 | 1.422 |  |  |  | 
13 | GSGSDMSSWQNQQT | 1.651 | 0.175 | 0.303 | 0.281 |  |  |  | 
14 | GSGQNARLKDNQQT |  |  |  |  | 1.354 | 2.395 | 0.938 | 0.580
15 | GHLTMHNSGQNHQT | 1.938 | 1.798 | 0.586 | 1.030 |  |  |  | 
16 | GSGSLRDFDQNQQT | 2.120 | 6.846 | 0.272 | 0.586 |  |  |  | 

Row | Sequence | Fold enrichment over AAV9 in the brain of NHPs ([1]; RNA NGS, brain of NHPs) [fold] | Fold enrichment over AAV9 in the spinal cord of NHPs ([1]; RNA NGS, spinal cord of NHPs) [fold] | Fold enrichment over AAV9 in the brain of Mice (BALB/c) (brain [2]; RNA NGS, brain of BALB/c mice) [fold] | Fold enrichment over AAV9 in the brain of Mice (C57Bl/6) (brain [3]; RNA NGS, brain of C57Bl/6 mice) [fold] | Fold enrichment over AAV9 in the brain of NHPs ([1]; RNA from brain of NHPs, NGS) [fold] | Fold enrichment over AAV9 in the spinal cord of NHPs [1, 4] [fold] | Fold enrichment over AAV9 in the brain of Mice (BALB/c) (brain [2]; [5]) [fold] | Fold enrichment over AAV9 in the brain of Mice (C57Bl/6) (brain [3]; [6]) [fold]
17 | GSGQNQQTAHAFNI |  |  |  |  | 1.132 | 3.404 | 0.729 | 0.699
18 | GSGVSARMVQNQQT |  |  |  |  | 1.299 | 0.624 | 0.697 | 0.870
19 | GSGLIRTAAQNQQT | 1.822 | 8.339 | 0.998 | 0.808 |  |  |  | 
20 | GSGQNQQVIQGSNT | 2.521 | 8.778 | 0.810 | 0.935 |  |  |  | 
21 | GSGQNQRLHGVDQT |  |  |  |  | 1.318 | 4.655 | 0.341 | 0.459
22 | GLAGHTVSGQNQQT | 3.632 | 0.229 | 0.202 | 0.972 |  |  |  | 
23 | GSGKNQQRPGLDQT | 1.089 | 1.557 | 0.385 | 0.583 |  |  |  | 
24 | GSGQVHNPTQNQQT |  |  |  |  | 1.410 | 2.488 | 0.542 | 1.021
25 | GSDQNQRLTSSMQT | 1.479 | 0.164 | 0.670 | 0.875 |  |  |  | 
26 | GSGHTNPTRQNQQT | 1.021 | 0.688 | 0.807 | 0.726 |  |  |  | 
27 | GSGQRNPLLLNQQT | 1.693 | 0.144 | 0.740 | 0.662 |  |  |  | 
28 | GSYGMAASGQNQQT | 3.817 | 10.052 | 0.829 | 1.274 |  |  |  | 
29 | GSGLLYHDQQNQQT | 1.565 | 2.760 | 0.107 | 0.405 |  |  |  | 
30 | GSGQRRELSQNQQT |  |  |  |  | 1.215 | 1.791 | 0.396 | 0.622
31 | GSGQNPIRGAMQQT |  |  |  |  | 1.126 | 1.327 | 0.427 | 1.296
